Key:
[1] = tested on: mushroom tyrosinase; assay: Kinetic studies on mushroom tyrosinase inhibition (Lineweaver–Burk and Dixon plots, L-tyrosine); type: biochemical; settings: for mode of mushroom tyrosinase inhibition: L-tyrosine as substrate; for Ki: mushroom tyrosinase
Description: 2.6. Kinetic Studies on Mushroom Tyrosinase Inhibition by Analogues 2 and 3
Lineweaver–Burk plots of analogues 2 and 3 were used to determine modes of mushroom tyrosinase inhibition in the presence of L-tyrosine as substrate. Briefly, 20 µL of an aqueous mushroom tyrosinase solution (200 units/mL), and 170 µL of an aqueous solution consisting of L-tyrosine at various concentrations (final concentrations: 0, 1, 2, 4, 8, or 16 mM), and sodium phosphate buffer (pH 6.5, final concentration: 14.7 mM) were added to the wells of a 96-well microplate. Subsequently, analogues 2 and 3 at four different concentrations (10 µL; final concentrations 0, 5, 10, or 20 µM in DMSO solution for 2, and concentrations of 0, 1, 2, or 4 µM in DMSO solution for 3) were added to wells. Initial rates of dopachrome formation were determined by measuring changes in absorbance at 475 nm per min (ΔOD475/min) using a microplate reader (VersaMax®, Molecular Devices, Sunnyvale, CA, USA). Maximum velocities (Vmax) were calculated from Lineweaver–Burk plots obtained using six different L-tyrosine concentrations. The modes of mushroom tyrosinase inhibition by the analogs were determined using the locations of plot convergence points.
Lineweaver–Burk double reciprocal plots were used to analyze enzyme’s inhibitory mechanisms. Kinetic studies were conducted using four different concentrations of analogs 2 (0, 5, 10, or 20 μM) and 3 (0, 1, 2, or 4 μM) in the presence of L-tyrosine at five different concentrations (1, 2, 4, 8, or 16 mM).

[2] = ROS scavenging activity assay (DCFH-DA/esterase, SIN-1); settings: SIN–1 10 µM; 5, 10, 20 µM
Description: 2.13. ROS Scavenging Activity Assay
The ROS scavenging activities of analogs 1–8 and Troloxwere determined as previously described by Ali et al. and Lebel and Bondy. Briefly, 2.5 mM DCFH-DA (2’,7’-dichlorodihydrofluorescein diacetate) (Molecular Probes, Eugene, OR, USA) solution was mixed with esterase (1.5 units/mL) in 50 mM phosphate buffer (pH 7.4), held for 30 min at 37 °C, and keep on ice in the dark until required. Tested compounds (10 µL; final concentrations: 5, 10, and 20 µM) dissolved in DMSO and SIN-1 (3-morpholinosydnonimine) (10 µM) and 180 µL of phosphate buffer in the wells of a black 96-well plate for 30 min. The 50 µL of DCFH-DA-esterase mixture (20 µM) was added. Fluorescence intensities of oxidized DCFH (DCF or 2′,7′-dichlorofluorescein) were measured using a microplate reader (Berthold Advances GmbH & Co., Bad Wildbad, Germany) with excitation and emission wavelengths of 485 and 530 nm, respectively. Trolox was used as the reference control.
Since it has been reported that reactive oxygen species (ROS) are concerned in the regulation of melanogenesis, we examined the ROS scavenging activities of analogs 1–8 using DCFH-DA (2′,7′-dichlorodihydrofluorescein diacetate) and esterase. Trolox and SIN–1 (3-morpholinosydnonimine) were used as the positive control and a ROS generator, respectively. Hydrolysis of DCFA-DA by esterase generates DCFH (2′,7′-dichlorodihydrofluorescein), which reacts with ROS generated by SIN–1 to produce the fluorescent compound DCF (2′,7′-dichlorofluorescein). Thus, ROS scavenging activities of analogs were assessed by measuring DCF fluorescence. […] Test samples including Trolox were treated at three different concentrations (5, 10, or 20 µM).

[3] = tested on: mushroom tyrosinase; assay: Mushroom tyrosinase activity assay (L-tyrosine as substrate); type: biochemical; settings: for tyrosinase inhibition relative to kojic acid: fold more than kojic acid; for IC50: mushroom tyrosinase, means ± SEMs of triplicate determinations; for enhancement of tyrosinase inhibitory activity relative to analog 1: versus analog 1
Description: 2.2. […] In brief, 20 µL of an aqueous mushroom tyrosinase solution (1000 units/mL) and 170 µL of a substrate mixture containing 345 µM of L-tyrosine and 17.2 mM of sodium phosphate buffer (pH 6.5) were added to wells of a 96-well microplate. […] Amounts of dopachrome produced were assessed by measuring optical densities at 475 nm using a microplate reader (VersaMax®, Molecular Devices, Sunnyvale, CA, USA). […] Experiments were independently conducted three times.

[4] = tested on: B16F10 murine melanoma cells; assay: B16F10 cell viability (EZ-Cytox assay); type: cell-based
Description: 2.8. Viabilities of B16F10 Murine Melanoma Cells Treated with Analogues 2 or 3
The cytotoxic effects of analogs 2 and 3 were examined using B16F10 murine melanoma cells, as previously described. Cell viabilities were determined using the EZ-Cytox cell viability assay kit (Daeil Lab Service Co. Ltd., Seoul, Korea). Briefly, B16F10 cells (density 1 × 10^4 cells/well) were added to the wells of a 96-well microplate and cultured in a humidified 5% CO2 atmosphere at 37 °C for 24 h. Cells were then exposed to analogs 2 or 3 at 0, 1, 2, 5, 10, or 20 µM and incubated in a humidified 5% CO2 atmosphere for 24, 48, or 72 h at 37 °C. At these time points, cells were exposed to 10 µL of EZ-Cytox solution and incubated for 2 h at 37 °C. Optical densities of wells were then measured at 450 nm using a microplate reader (VersaMax®, Molecular Devices, Sunnyvale, CA, USA) to assess cell viability. Experiments were conducted independently 3 times.
Since analogs 2 and 3 had potent inhibitory effects on mushroom tyrosinase, they were subjected to B16F10 murine melanoma cytotoxicity assays. Initially, the cytotoxicities of 2 and 3 were investigated at concentrations of 0, 1, 2, 5, 10, and 20 µM using the EZ-Cytox cell viability assay (EZ-3000; DoGenBio, Seoul, Korea). Cell viability was measured after treatment for 24, 48, or 72 h (Figure 6).

mode of mushroom tyrosinase inhibition ([1]; Lineweaver–Burk plots)	Vmax ([1]; Lineweaver–Burk plots, L-tyrosine, independent of analog 2 concentration (0, 5, 10, 20 µM)) [mM/min]	Ki ([1]; L-tyrosine) [nM]	tyrosinase inhibition relative to kojic acid [3] [fold]	IC50 [3] [µM]	enhancement of tyrosinase inhibitory activity relative to analog 1 [3] [fold]	Km ([1]; Lineweaver–Burk plots, L-tyrosine, independent of analog 3 concentration (0, 1, 2, 4 µM)) [mM]	SMILES	ROS scavenging [2]	ROS scavenging compared with Trolox [2]	cytotoxicity in B16F10 cells, 24 h ([4]; 1, 2, 5, 10, 20 µM, 24 h)	cytotoxicity in B16F10 cells, 48 h and 72 h ([4]; 1, 2, 5, 10, 20 µM, 48 h and 72 h)	cytotoxicity in B16F10 cells, any concentration or time ([4]; 1, 2, 5, 10, 20 µM, 24, 48, 72 h)
competitively	0.00343	2220	5	5.21 ± 0.86	13	–	O=C1/C(=C/c2ccc(O)c(O)c2)SC(=S)N1C1CCCCC1 [Analog 2, (Z)-3-Cyclohexyl-5-(3,4-dihydroxybenzylidene)-2-thioxothiazolidin-4-one]	significantly and concentration-dependently scavenged ROS	more potently than Trolox	cytotoxic at 20 µM	cytotoxic at all concentrations	–
non-competitive	–	1270	25	1.03 ± 0.14	63	2.81	O=C1/C(=C/c2ccc(O)cc2O)SC(=S)N1C1CCCCC1 [Analog 3, (Z)-3-Cyclohexyl-5-(2,4-dihydroxybenzylidene)-2-thioxothiazolidin-4-one]	significantly and concentration-dependently scavenged ROS	more potently than Trolox	–	–	not cytotoxic
